The results in this text go back to ChEMBL document CHEMBL1130945, “Rapid optimization of an ICE inhibitor synthesis using multiple reaction conditions in a parallel array” (Bioorg Med Chem Lett, 1998).

Experiment [1] deals with T1, Caspase-1 (Homo sapiens, UniProt P29466, D381E). As to the kind of experiment: Compound was tested for inhibitory activity against N-His (D381E) Interleukin -1 beta converting enzyme (combinatorially prepared compound).
For experiment [2], the target named is T1, Caspase-1. As to the kind of experiment: Compound was tested for binding affinity against N-His (D381E) Interleukin -1 beta converting enzyme.
For experiment [3], the target named is T1, Caspase-1. As to the kind of experiment: Compound was tested for inhibitory activity against N-His (D381E) Interleukin -1 beta converting enzyme (resynthesized compound).

T1 sequence (P29466 120-297 limits assumed): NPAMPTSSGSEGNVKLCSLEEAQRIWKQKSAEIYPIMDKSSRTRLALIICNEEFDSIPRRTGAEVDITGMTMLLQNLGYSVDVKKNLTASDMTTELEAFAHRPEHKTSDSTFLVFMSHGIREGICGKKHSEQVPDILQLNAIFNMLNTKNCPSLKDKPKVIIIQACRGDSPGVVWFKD
T1 sequence (P29466 317-404 D381E limits assumed): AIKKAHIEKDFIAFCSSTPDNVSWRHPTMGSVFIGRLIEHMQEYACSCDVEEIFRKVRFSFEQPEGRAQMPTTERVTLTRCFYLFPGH

In the case of `O=C(O)C[C@H](NC(=O)OCc1ccccc1)C(=O)COC(=O)Cc1c(Cl)cccc1Cl`, the IC50 in experiment [1] turned out to be 742 nM.
Consider `O=C(O)C[C@H](NC(=O)OCc1ccccc1)C(=O)COC(=O)CCc1ccccc1`, for which the IC50 was found to be 12000 nM in experiment [1] and 35000 nM in experiment [3]. In experiment [2], this compound showed a Ki of 4500 nM.
Consider `O=C(O)C[C@H](NC(=O)OCc1ccccc1)C(=O)COC(=O)Cc1c(Cl)ccc(Cl)c1Cl`, for which, in experiment [1], the IC50 stood at 936 nM.
With `CC(=O)NC(C(=O)N[C@@H](CC(=O)O)C(=O)COC(=O)Cc1c(Cl)ccc(Cl)c1Cl)C(C)C` (stereo partly specified), the half-maximal inhibitory concentration (IC50) in experiment [1] is 5 nM; in experiment [3], 7 nM. Besides, the Ki in experiment [2] was determined as 113 nM.
As for `CC(=O)NC(C(=O)N[C@@H](CC(=O)O)C(=O)COC(=O)Cc1c(Cl)cccc1Cl)C(C)C` (stereo partly specified), the half-inhibitory concentration (IC50) in experiment [1] turned out to be 5 nM; in experiment [3], 8 nM. The same compound gave an inhibitory constant (Ki) in experiment [2] of 82 nM.
